The values that follow come from ChEMBL document CHEMBL1201862, “PubChem BioAssay data set” (2004).

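1) Cells in 96-well plates. 2) Compound, 48 h, 5 concentrations. 3) Linear interpolation between surrounding doses. 4) Unreached endpoint = highest concentration. GI50: concentration for 50% inhibition of growth.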 The source made the active and inactive calls. Rule as the data show it: active = GI50 up to about 1.1 µM and inactive = higher.

Among the test systems are HCC 2998; UO-31; HOP-62; SNB-75; A549; T47D; HL-60; RPMI-8226; COLO 205; NCI-H522; HT-29; HOP-92; HCT-116; 786-0; KM12; MDA-MB-435; UACC-62; MOLT-4; MDA-MB-231; MCF7.
Common to all, as to test: growth of human tumour cells (NCI), 48 h

For the compound `O=[N+]([O-])/C(Cl)=C(\NCCO)C(Cl)=C(Cl)Cl`, the GI50 with HCC 2998 is > 100 µM (inactive); in the assay on UO-31, > 74.5 µM (inactive); with HOP-62, > 100 µM (inactive); in the assay on SNB-75, > 80.2 µM (inactive); in the assay on A549, > 100 µM (inactive); in the assay with T47D, 57.7 µM (inactive). For the same compound, the GI50 was 4.35 µM (inactive) in the assay with HL-60; 16.1 µM (inactive) in the assay with RPMI-8226; 27.5 µM (inactive) in the assay on COLO 205; 21.7 µM (inactive) in the assay with NCI-H522; 57 µM (inactive) in the assay with HT-29; > 84.5 µM (inactive) in the assay on HOP-92. For the same compound, the GI50 was 45.2 µM (inactive) in the assay on HCT-116; 45 µM (inactive) in the assay with 786-0; > 89.1 µM (inactive) with KM12; 55.8 µM (inactive) with MDA-MB-435; 45.2 µM (inactive) in the assay with UACC-62; 20.7 µM (inactive) with MOLT-4. The GI50 with MDA-MB-231 was > 64.9 µM (inactive); in the assay with MCF7 it was 52 µM (inactive).

Regarding `COc1cc(/C=c2/c3ccccc3n3c2cc(-c2ccccc2)[n+]3C)cc(OC)c1OC`, the GI50 is 6.22 µM (inactive) in the assay with HCC 2998; 5.12 µM (inactive) with UO-31; 5.47 µM (inactive) in the assay with HOP-62; 4.01 µM (inactive) with SNB-75; 4.18 µM (inactive) with A549; 4.06 µM (inactive) in the assay on T47D. Further, the GI50 in the assay with HL-60 is 2.39 µM (inactive); in the assay on RPMI-8226, 2.55 µM (inactive); in the assay on COLO 205, 1.69 µM (inactive); in the assay with NCI-H522, 2.93 µM (inactive); in the assay on HT-29, 3.07 µM (inactive); in the assay on HOP-92 it was 3.48 µM (inactive). Moreover, the GI50 is 2.62 µM (inactive) with HCT-116; 4.06 µM (inactive) in the assay with 786-0; 1.91 µM (inactive) in the assay with KM12; 2.51 µM (inactive) in the assay on MDA-MB-435; 3.69 µM (inactive) in the assay on UACC-62; 2.97 µM (inactive) in the assay with MOLT-4. For the same compound, the GI50 in the assay with MDA-MB-231 is 4.06 µM (inactive); in the assay on MCF7 it was 4.54 µM (inactive).

`Cc1cccc(NC(=S)N/N=C(/c2ccccc2)c2ccccn2)c1`: the GI50 in the assay with HCC 2998 was 2.84 µM (inactive); in the assay with UO-31 it was 0.385 µM (active); in the assay on HOP-62, 1.29 µM (inactive); in the assay on SNB-75, 0.991 µM (active); in the assay on A549 it was 0.22 µM (active); in the assay on T47D, 0.0579 µM (active). Also, the GI50 with HL-60 was < 0.0137 µM (active); in the assay with RPMI-8226, < 0.0182 µM (active); in the assay on COLO 205, < 0.0163 µM (active); in the assay with NCI-H522, 1.09 µM (active); with HT-29 it was 0.0285 µM (active); in the assay with HOP-92 it was 0.484 µM (active). The GI50 with HCT-116 is < 0.0131 µM (active); with 786-0, 0.948 µM (active); in the assay on KM12, 0.0796 µM (active); in the assay on MDA-MB-435 it was 0.574 µM (active); in the assay with UACC-62 it was 0.267 µM (active); in the assay on MOLT-4, < 0.0149 µM (active). Further, the figures for the GI50 with MDA-MB-231 and in the assay on MCF7 were 0.0378 µM (active) and < 0.0172 µM (active), respectively.

In the case of `COc1c(O)cc2oc(-c3ccc(O)cc3)cc(=O)c2c1O` [HISPIDULIN], the GI50 is 28.7 µM (inactive) with HCC 2998; 25.1 µM (inactive) in the assay with UO-31; 46.7 µM (inactive) in the assay on HOP-62; 17.3 µM (inactive) with SNB-75; 35.5 µM (inactive) with A549; 33.4 µM (inactive) in the assay on T47D. Moreover, the GI50 with HL-60 was 24.5 µM (inactive); with RPMI-8226 it was 46.3 µM (inactive); with COLO 205 it was 90.4 µM (inactive); in the assay on NCI-H522, 36.2 µM (inactive); in the assay on HT-29 it was 45.7 µM (inactive); in the assay on HOP-92 it was 2.91 µM (inactive). For the same compound, the GI50 was 35.3 µM (inactive) in the assay on HCT-116; 60.1 µM (inactive) with 786-0; 31.5 µM (inactive) in the assay on KM12; 36.3 µM (inactive) with MDA-MB-435; 19 µM (inactive) in the assay with UACC-62; 25.4 µM (inactive) in the assay with MOLT-4. Further, the GI50 in the assay on MDA-MB-231 is 74.5 µM (inactive); with MCF7, 52 µM (inactive).
